Measured values taken from paper PMC5478727, “A Novel Small Molecule GDNF Receptor RET Agonist, BT13, Promotes Neurite Growth from Sensory Neurons in Vitro and Attenuates Experimental Neuropathy in the Rat” (Frontiers in Pharmacology, 2017).

Columns and labels:
histamine receptor H2 = histamine receptor H2 (Homo sapiens, UniProt P25021); assay: CEREP H2 (h) (antagonist radioligand); format: binding; details: BT13 1 μM; Cat. No. 1208; average of duplicate; read-out: Percentage of inhibition/potentiation from control
histamine receptor H2, sequence (P25021 whole entry, canonical isoform): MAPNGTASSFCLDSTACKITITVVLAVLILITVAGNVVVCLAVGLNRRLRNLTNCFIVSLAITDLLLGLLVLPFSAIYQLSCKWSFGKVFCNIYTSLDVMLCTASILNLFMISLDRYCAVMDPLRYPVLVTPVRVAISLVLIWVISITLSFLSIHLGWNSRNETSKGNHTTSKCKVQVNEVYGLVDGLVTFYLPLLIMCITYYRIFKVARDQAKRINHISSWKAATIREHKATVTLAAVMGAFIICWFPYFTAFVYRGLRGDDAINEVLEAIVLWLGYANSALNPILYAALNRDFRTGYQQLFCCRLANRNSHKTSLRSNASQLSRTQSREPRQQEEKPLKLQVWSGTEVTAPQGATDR

CYP3A4 = molecular target: T1, CYP3A4 (Homo sapiens, UniProt P08684); assay: CYP inhibition, fluorescent assay; format: biochemical; details: read-out: Inhibition of CYP isoforms (IC50), CYP3A4
T1 construct: Cyathus Exquirere (contract laboratory)
T1 sequence (P08684 whole entry, canonical isoform): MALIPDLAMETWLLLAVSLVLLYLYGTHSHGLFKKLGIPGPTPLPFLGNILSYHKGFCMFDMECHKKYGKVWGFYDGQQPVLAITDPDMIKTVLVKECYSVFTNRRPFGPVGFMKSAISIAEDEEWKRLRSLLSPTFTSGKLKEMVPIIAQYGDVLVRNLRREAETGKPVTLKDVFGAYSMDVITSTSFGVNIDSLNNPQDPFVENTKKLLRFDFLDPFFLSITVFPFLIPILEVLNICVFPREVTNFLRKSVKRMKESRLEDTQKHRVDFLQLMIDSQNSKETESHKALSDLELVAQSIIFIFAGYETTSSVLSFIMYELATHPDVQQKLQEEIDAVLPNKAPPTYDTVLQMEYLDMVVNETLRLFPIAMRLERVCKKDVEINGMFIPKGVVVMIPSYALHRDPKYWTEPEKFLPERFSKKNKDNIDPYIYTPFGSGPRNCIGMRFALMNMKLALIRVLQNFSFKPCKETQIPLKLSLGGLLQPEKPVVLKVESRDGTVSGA

neurokinin receptor NK3 = neurokinin receptor NK3 (Homo sapiens, UniProt P29371); assay: CEREP NK3 (h) (antagonist radioligand); format: binding; details: read-out: Percentage of inhibition/potentiation from control
neurokinin receptor NK3, sequence (P29371 whole entry): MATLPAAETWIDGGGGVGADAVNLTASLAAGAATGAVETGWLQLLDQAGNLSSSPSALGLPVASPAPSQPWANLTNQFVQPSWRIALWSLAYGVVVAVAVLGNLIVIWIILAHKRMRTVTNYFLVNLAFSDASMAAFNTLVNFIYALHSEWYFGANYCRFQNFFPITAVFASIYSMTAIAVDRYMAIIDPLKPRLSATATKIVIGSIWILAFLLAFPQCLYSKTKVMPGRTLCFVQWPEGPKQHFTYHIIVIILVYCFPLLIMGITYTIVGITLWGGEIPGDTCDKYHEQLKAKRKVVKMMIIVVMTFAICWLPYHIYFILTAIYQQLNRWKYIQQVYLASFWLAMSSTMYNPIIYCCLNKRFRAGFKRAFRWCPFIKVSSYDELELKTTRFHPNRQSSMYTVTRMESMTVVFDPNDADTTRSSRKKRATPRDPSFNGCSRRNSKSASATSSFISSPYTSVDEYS

[1] = molecular target: opioid receptor delta (DOP) (Homo sapiens, UniProt P41143); assay: CEREP Delta (DOP) (h) (agonist radioligand); format: binding; details: BT13 1 μM; Cat. No. 0114; average of duplicate; read-out: Percentage of inhibition/potentiation from control
opioid receptor delta (DOP), sequence (P41143 whole entry, canonical isoform): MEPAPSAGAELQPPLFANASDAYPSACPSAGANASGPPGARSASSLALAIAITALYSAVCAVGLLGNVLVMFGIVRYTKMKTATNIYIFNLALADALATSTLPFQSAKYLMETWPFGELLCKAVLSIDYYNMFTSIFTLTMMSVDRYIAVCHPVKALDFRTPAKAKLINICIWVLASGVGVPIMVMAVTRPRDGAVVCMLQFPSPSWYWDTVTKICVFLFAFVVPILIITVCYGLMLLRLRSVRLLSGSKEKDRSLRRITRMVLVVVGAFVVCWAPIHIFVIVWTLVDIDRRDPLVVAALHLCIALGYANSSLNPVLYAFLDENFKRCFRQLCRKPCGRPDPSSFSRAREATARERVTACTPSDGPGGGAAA

CYP2C19 = molecular target: T2, CYP2C19 (Homo sapiens, UniProt P33261); assay: CYP inhibition, fluorescent assay; format: biochemical; details: read-out: Inhibition of CYP isoforms (IC50), CYP2C19
T2 construct: Cyathus Exquirere (contract laboratory)
T2 sequence (P33261 whole entry, canonical isoform): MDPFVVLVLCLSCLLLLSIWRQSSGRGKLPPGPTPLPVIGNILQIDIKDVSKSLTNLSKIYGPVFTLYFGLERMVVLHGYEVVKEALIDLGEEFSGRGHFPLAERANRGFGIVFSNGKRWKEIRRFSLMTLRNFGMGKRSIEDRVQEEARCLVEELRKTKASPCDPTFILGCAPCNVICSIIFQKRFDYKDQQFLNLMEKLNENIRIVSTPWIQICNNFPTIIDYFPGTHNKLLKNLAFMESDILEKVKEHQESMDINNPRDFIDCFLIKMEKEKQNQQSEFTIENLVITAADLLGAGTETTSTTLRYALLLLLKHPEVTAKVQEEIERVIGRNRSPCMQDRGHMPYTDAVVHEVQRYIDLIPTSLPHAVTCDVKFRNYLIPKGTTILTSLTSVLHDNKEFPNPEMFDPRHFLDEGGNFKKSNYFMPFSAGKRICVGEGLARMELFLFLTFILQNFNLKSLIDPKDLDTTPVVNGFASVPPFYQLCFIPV

[2] = tested on: Akt and Erk phosphorylation in parental MG87 cells; assay: Erk1/2 and Akt phosphorylation assay in parental MG87 cells; format: cell-based, murine; details: BT13 10–100 μM

CCN(CC)S(=O)(=O)c1ccc(OC)c(N2CCN(C(=O)c3ccc(F)cc3C(F)(F)F)CC2)c1 [BT13]
inhibition at 1 µM (histamine receptor H2): 9% | IC50 (CYP3A4): 3.2 ± 0.42 µM | inhibition at 1 µM (neurokinin receptor NK3): 0% | inhibition at 1 µM [1]: 3% | IC50 (CYP2C19): > 100 µM | Akt and Erk phosphorylation [2]: no Akt or Erk phosphorylation was observed
